US12492337B2, “Fluorescent probe, preparation method therefor and use thereof” (FLUORESCENCE DIAGNOSIS (SHANGHAI) BIOTECH COMPANY, priority 2017, dated 2025)

Key:
HaloTag protein tag = assay: Probe mixed with HaloTag protein tag, fluorescence spectrophotometer (Example 86); format: biochemical; details: 5 μM probe, 10 μM protein tag, 37° C., 1 hour; for Fluorescence enhancement: fluorescence activation multiple after binding protein tag; for Emission/nm: fluorescence emission wavelength
Description: (§1) A probe was mixed with a corresponding HaloTag protein tag to obtain a mixed sample. The final concentration of the probe in the mixed sample was 5 μM and the final concentration of the protein tag was 10 μM. The mixed sample was incubated at 37° C. for 1 hour, and the sample was detected using a fluorescence spectrophotometer.

[1] = Quantum yield of free probe not reacted with protein tag; format: physicochemical
Description: as §1

[2] = Viscosity responsiveness: fluorescence intensity in glycerol versus methanol; format: physicochemical; details: fluorescence intensity in glycerol to that in methanol
Outline: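 At 25 °C, with the same dye concentration and excitation wavelength, maximum emission intensity in glycerol was compared with intensity in methanol, giving a ratio. Dye concentrations ranged from 1×10^−7 M to 1×10^−5 M.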

[3] = tested on: Hela cells stably expressing HaloTag protein tags; assay: Confocal imaging of labeled Hela cells stably expressing HaloTag protein tags (Example 89); format: cell-based; details: Homo sapiens, 5 μM probe, 2 hours, 37° C., confocal microscope, read-out: fluorescence signal enhancement in Hela cells expressing the protein tag
Description: (§2) Hela cells are used as an example to test the labeling effect of compounds in mammalian cells. Hela cells and Hela-WT cells (Hela primitive cell, without a protein tag expressed) stably expressing HaloTag protein tags were planted in 14 mm 96-well glass bottom cell culture plates and stabilized for 10 hours. Probe 57, probe 59, probe 60, probe 61, probe 69, probe 75, probe 76, probe 82 were added to the culture medium and diluted to 5 μM, respectively. The cells were incubated in a 37° C. carbon dioxide incubator for 2 hours, and the fluorescence changes of the labeled cells were detected by imaging with a Leica TPS-8 confocal microscope.

Hela-WT cells = assay: Confocal imaging of Hela-WT cells without protein tag (Example 89); format: cell-based; details: 5 μM probe, 2 hours, 37° C., confocal microscope
Description: as §2

[4] = tested on: HaloTag protein tags in different subcellular organelles of Hela cells; assay: Labeling HaloTag protein tags in different subcellular organelles of Hela cells (Example 90); format: cell-based; details: 0.2 μM probe, 2 hours, no washing; cytoskeleton, mitochondria, nucleus, Golgi, whole cells, lysosomes
Description: In order to verify that probe 57, probe 59, probe 60, probe 61, probe 62, and probe 63 can be used to label target proteins located in different organelles. Hela cells were used as examples to detect the effect of probes on labeling HaloTag protein tags in different subcellular organelles. Hela cells were implanted 5000 cells per well in 96-well glass-bottom cell culture plates. After 14 hours, lipo2000 kit was used to transfect the plasmids localized by HaloTag protein tags in different organelles. The original culture medium was removed 24 hours after transfection, and the cells were washed twice with a phenol red-free DMEM medium, and incubated for 2 hours in a phenol red-free medium containing 0.2 μM probes, and the effect of cell labelling was detected by imaging using a Leica TCS-8 confocal microscope.

[5] = tested on: fusion protein CX43-HaloTag; assay: Tracing assembly of CX43-HaloTag intercellular channels in Hela cells (Example 94); format: cell-based; details: 1 μM probe added after labeling with probe 61 and washing
Source text: To verify that the probe can be used to monitor the assembly and degradation of biomacromolecules in mammalian cells in real time, Hela cells were used as an example to detect the process of tracing, by a probe, the assembly of intercellular protein CX43 to form intercellular channels in mammalian cells. The C-terminus of CX43 gene was fused with HaloTag gene, and a Hela cell line stably expressing the fusion protein CX43-HaloTag was constructed and obtained by lentiviral infection technology. Hela-CX43-HaloTag cell lines were implanted in a 20 mm glass-bottom cell culture dish 10 hours before the probe labeling. When labeling, the probe 61 μM was first diluted to 2 μM with phenol red-free DMEM medium and replaced the original cell culture medium. The cells were incubated in a 37° C. carbon dioxide incubator for 1 hour. Thereafter, the cells were washed twice with fresh phenol red-free DMEM medium, and the unbound probe 61 was removed at intervals of 2 min. Then, a DMEM phenol-free medium containing 1 μM probe 57 was added to label the cells, and a Leica SP8 confocal microscope was used to monitor the fluorescence intensity and position changes of labeled cells at the corresponding fluorescence channels of probe 61 and probe 57 for a long time, which are shown in FIGS. 17A and 17B, respectively. […]

[6] = tested on: HaloTag protein tag expressed in the liver; assay: Labeling of HaloTag protein tag expressed in mouse liver, in vivo imaging system (Example 92); design: species or system mice; details: 0.4 μM probe in 200 ul PBS via tail vein, 6 hours later
Description: First, a plasmid pcdna3.1-HaloTag (sample group) expressing the HaloTag protein tag and a control plasmid pcdna3.1-CAT (control group) not expressing the HaloTag protein tag were introduced into mice. This method is to dissolve the plasmid in a large volume of solution and inject it into mice quickly through tail vein injection. The mouse liver absorbs DNA and then expresses the target protein. 20 hours after the plasmid injection, 0.4 μM probe 77 dissolved in 200 ul of PBS was injected into the mice via tail vein injection to label the HaloTag protein tag; 6 hours later, the mice were dissected out, and the fluorescence differences in the liver parts of different mouse samples were detected by KODAK multi-spectral in vivo imaging system.
The fluorescence of the liver of the control plasmid pcdna3.1-CAT injected with the probe 77 was very low, which was close to the background fluorescence level of the blank liver without the probe injected, and the liver of the HaloTag plasmid pcdna3.1-HaloTag injected with the probe 77 had strong fluorescence, and the signal intensity was more than 20 times that of the control group.

SNAP protein = assay: Labeling speed and fluorescence intensity, purified SNAP protein, microplate reader (Example 95); format: biochemical
Description: To verify that the probe-labeled HaloTag protein tag has a faster labeling speed and higher fluorescence intensity than the probe-labeled SNAP protein tag, a probe 48-labeled HaloTag protein tag and a reference probe 85-labeled SNAP protein tag were taken as examples (probe 48 and reference probe 85 have the same fluorescent dye portion). When labeling, the purified HaloTag protein and SNAP protein were first diluted to 7.5 μM with PBS.
Probe 48 and reference probe 85 were diluted to 15 μM with PBS, and 20 μL of probe 48 was added to 80 μL of HaloTag protein and mixed, 20 μL of reference probe 85 was added to 80 μL of SNAP protein and mixed, and a microplate reader was used to monitor the changes in fluorescence intensity of the two solutions excited at 620 nm and emitted at 650 nm, which lasted for two hours.

With `CN(C)c1ccc(/C=C(\C#N)C(=O)NCCOCCOCCCCCCCl)cc1` [Probe 57] the “The quantum yield after binding to Halo-tag” value (HaloTag protein tag) was 0.56, the Fluorescence enhancement (HaloTag protein tag) was 1026 and the Emission/nm (HaloTag protein tag) was 480 nm. For the same compound, the “The quantum yield of the free probe” value [1] was <0.001, the ratio [2] was 762 and the fold induction at 5 µM [3] was ~200. The “fluorescent signal in Hela-WT cells” value (Hela-WT cells) was “no corresponding fluorescent signal could be detected”, the “effect of cell labelling of subcellular organelles” value (shortened to “effect”) [4] was “clearly display a variety of subcellular organelle structures without washing” and the “fluorescent signal in the probe 57 channel when just added” value [5] was “fluorescent signal could not be detected”.
With `N#C/C(=C\c1cc2c3c(c1)CCCN3CCC2)C(=O)NCCOCCOCCCCCCCl` [Probe 59] the “The quantum yield after binding to Halo-tag” value (HaloTag protein tag) was 0.45, the Fluorescence enhancement (HaloTag protein tag) was 498 and the Emission/nm (HaloTag protein tag) was 500 nm. For the same compound, the “The quantum yield of the free probe” value [1] was <0.001, the ratio [2] was 370 and the fold induction at 5 µM [3] was ~200. For the same compound, the “fluorescent signal in Hela-WT cells” value (Hela-WT cells) was “no corresponding fluorescent signal could be detected” and the “effect” value [4] was “clearly display a variety of subcellular organelle structures without washing”.
With `CN1CCSc2cc(/C=C(\C#N)C(=O)NCCOCCOCCCCCCCl)ccc21` [Probe 60] the “The quantum yield after binding to Halo-tag” value (HaloTag protein tag) was 0.65, the Fluorescence enhancement (HaloTag protein tag) was 751 and the Emission/nm (HaloTag protein tag) was 520 nm. For the same compound, the “The quantum yield of the free probe” value [1] was 0.0011, the ratio [2] was 1199 and the fold induction at 5 µM [3] was ~200. For the same compound, the “fluorescent signal in Hela-WT cells” value (Hela-WT cells) was “no corresponding fluorescent signal could be detected” and the “effect” value [4] was “clearly display a variety of subcellular organelle structures without washing”.
For `CN(C)c1ccc2nc(/C=C(\C#N)C(=O)NCCOCCOCCCCCCCl)ccc2c1` [Probe 62], the “The quantum yield after binding to Halo-tag” value (HaloTag protein tag) was 0.57, the Fluorescence enhancement (HaloTag protein tag) was 592 and the Emission/nm (HaloTag protein tag) was 590 nm. For the same compound, the “The quantum yield of the free probe” value [1] was <0.001, the ratio [2] was 711 and the “effect” value [4] was “clearly display a variety of subcellular organelle structures without washing”.
For `CN(C)c1ccc2cc(/C=C(\C#N)C(=O)NCCOCCOCCCCCCCl)sc2c1` [Probe 63], the “The quantum yield after binding to Halo-tag” value (HaloTag protein tag) was 0.70, the Fluorescence enhancement (HaloTag protein tag) was 486 and the Emission/nm (HaloTag protein tag) was 570 nm. The “The quantum yield of the free probe” value [1] was 0.0015, the ratio [2] was 531 and the “effect” value [4] was “clearly display a variety of subcellular organelle structures without washing”.
With `CN(C)c1ccc2nc(/C=C(\C#N)C(=O)NCCOCCOCCCCCCCl)oc2c1` [Probe 69] the “The quantum yield after binding to Halo-tag” value (HaloTag protein tag) was 0.47, the Fluorescence enhancement (HaloTag protein tag) was 491 and the Emission/nm (HaloTag protein tag) was 610 nm. For the same compound, the “The quantum yield of the free probe” value [1] was <0.001, the ratio [2] was 317 and the fold induction at 5 µM [3] was ~200. For the same compound, the “fluorescent signal in Hela-WT cells” value (Hela-WT cells) was “no corresponding fluorescent signal could be detected”.
With `CN(C)c1cc2sc3cc(/C=C(\C#N)C(=O)NCCOCCOCCCCCCCl)sc3c2s1` [Probe 75] the “The quantum yield after binding to Halo-tag” value (HaloTag protein tag) was 0.56, the Fluorescence enhancement (HaloTag protein tag) was 589 and the Emission/nm (HaloTag protein tag) was 620 nm. For the same compound, the “The quantum yield of the free probe” value [1] was 0.0021, the ratio [2] was 500 and the fold induction at 5 µM [3] was ~200. For the same compound, the “fluorescent signal in Hela-WT cells” value (Hela-WT cells) was “no corresponding fluorescent signal could be detected”.
For `CN(C)c1cc2c(s1)-c1sc(/C=C(\C#N)C(=O)NCCOCCOCCCCCCCl)cc1C2(C)C` [Probe 76], the “The quantum yield after binding to Halo-tag” value (HaloTag protein tag) was 0.58, the Fluorescence enhancement (HaloTag protein tag) was 666 and the Emission/nm (HaloTag protein tag) was 640 nm. For the same compound, the “The quantum yield of the free probe” value [1] was 0.0011, the ratio [2] was 386 and the fold induction at 5 µM [3] was ~200. The “fluorescent signal in Hela-WT cells” value (Hela-WT cells) was “no corresponding fluorescent signal could be detected”.
In the case of `CN(C)c1cc2c(s1)-c1sc(/C=C(\C#N)C(=O)OCCOCCOCCCCCCCl)cc1C2(C)C` [Probe 77], the “The quantum yield after binding to Halo-tag” value (HaloTag protein tag) is reported as 0.53, the Fluorescence enhancement (HaloTag protein tag) is reported as 721 and the Emission/nm (HaloTag protein tag) is reported as 652 nm. For the same compound, the “The quantum yield of the free probe” value [1] was 0.0014, the ratio [2] was 479 and the “liver fluorescence signal intensity relative to the control group” value ([6]; mice with pcdna3.1-HaloTag) was “more than 20 times”. The “fluorescence of the liver of control plasmid pcdna3.1-CAT mice” value ([6]; mice without HaloTag expression) was “very low”.
With `CN(C)c1cc2c(s1)-c1sc(/C=C(\C#N)C(=S)NCCOCCOCCCCCCCl)cc1C2(C)C` [Probe 82] the “The quantum yield after binding to Halo-tag” value (HaloTag protein tag) was 0.51, the Fluorescence enhancement (HaloTag protein tag) was 781 and the Emission/nm (HaloTag protein tag) was 660 nm. The “The quantum yield of the free probe” value [1] was <0.001, the ratio [2] was 475 and the fold induction at 5 µM [3] was ~200. For the same compound, the “fluorescent signal in Hela-WT cells” value (Hela-WT cells) was “no corresponding fluorescent signal could be detected”.
With `CN(CCOC(=O)NCc1ccc(COc2nc(N)nc3[nH]cnc23)cc1)c1cc2c(s1)-c1sc(/C=C(\C#N)C(=O)OC(C)(C)C)cc1C2(C)C` [Reference Probe85, reference compound] the “The quantum yield after binding to Halo-tag” value (HaloTag protein tag) was 0.32, the Fluorescence enhancement (HaloTag protein tag) was 321 and the Emission/nm (HaloTag protein tag) was 645 nm. For the same compound, the “The quantum yield of the free probe” value [1] was <0.001, the ratio [2] was 510 and the “labeling time of the SNAP protein tag labeled by the probe” value (SNAP protein; 20 μL 15 μM probe + 80 μL 7.5 μM protein in PBS, excited at 620 nm, emitted at 650 nm) was “about 7 min”. The “fluorescence intensity lower than the former (probe 48-labeled HaloTag) by” value (SNAP protein; same conditions as probe 48 with HaloTag protein) was ≥ 1 time.
